The subject of the experiment is clinical isolates of pathogenic wound bacteria and yeast. In words: Dual culture overlay assays, whole pathogen panel and antibiotic controls. Type of experiment: cell-based. The following applies: antibiotic 30 μg; pathogen of each column not given. The protocol: Used pathogens (Table 2) were cultivated in Nutrient broth (Oxoid) at 37° C. during 24 hours prior to test in the antagonism assays.
Dual Culture Overlay Assay Antimicrobial activity was measured by using dual culture overlay assay. The Lactobacillus apinorum and Lactobacillus mellifer strains (Table 2) were put into a filter disk and placed onto supplemented MRS agar plates followed by overnight incubation at 35° C.

As for `O=C(N[C@H](CO)[C@H](O)c1ccc([N+](=O)[O-])cc1)C(Cl)Cl` [Cl, Chloramphenicol], the “diameter of the inhibition zone, antibiotic control” value is recorded as “^S19 millimetres”. Turning to `CO/N=C(\C(=O)N[C@@H]1C(=O)N2C(C(=O)O)=C(COC(N)=O)CS[C@H]12)c1ccco1` [Cx, Cefuroxime sodium], the “diameter of the inhibition zone, antibiotic control” value was 28 millimetres.

Source of the values: patent US10287641B2, “Lactobacillus apinorum and Lactobacillus mellifer from honeybees in medical, food and feed applications” (CONCELLAE AB, priority 2014, dated 2019).
